{"source": "patent US11570982B2", "about": "“Systems and methods for natural cryoprotectants for preservation of cells” (Membrane Protective Technologies, Inc., priority 2016, dated 2023)", "assay": "Antioxidant activity (Trolox equivalent) of materials substituted for glycerol"}
{"compound": "OCC(O)CO", "note": "[Glycerol, glycerol]", "values": [{"measurement": "Antioxidant (Trolox equivalent μM/g)", "result": 0, "unit": "µM/g"}]}
